# Data published in US20240269139A1, “COMPOUNDS FOR TARGETED PROTEIN DEGRADATION OF KINASES” (DANA-FARBER CANCER INSTITUTE, INC., priority 2020, published 2024).
# Key:
# Type in all cases: cell-based
# [1] = molecular target: protein kinases (human kinome) (Homo sapiens, UniProt Q9H0K1); conditions: experiment wp195
# [2] = system: protein kinases (human kinome); conditions: experiment wp195
# [3] = molecular target: T1, protein kinases (human kinome) (Homo sapiens, UniProt O75385)
# T1 sequence (O75385 1-1050): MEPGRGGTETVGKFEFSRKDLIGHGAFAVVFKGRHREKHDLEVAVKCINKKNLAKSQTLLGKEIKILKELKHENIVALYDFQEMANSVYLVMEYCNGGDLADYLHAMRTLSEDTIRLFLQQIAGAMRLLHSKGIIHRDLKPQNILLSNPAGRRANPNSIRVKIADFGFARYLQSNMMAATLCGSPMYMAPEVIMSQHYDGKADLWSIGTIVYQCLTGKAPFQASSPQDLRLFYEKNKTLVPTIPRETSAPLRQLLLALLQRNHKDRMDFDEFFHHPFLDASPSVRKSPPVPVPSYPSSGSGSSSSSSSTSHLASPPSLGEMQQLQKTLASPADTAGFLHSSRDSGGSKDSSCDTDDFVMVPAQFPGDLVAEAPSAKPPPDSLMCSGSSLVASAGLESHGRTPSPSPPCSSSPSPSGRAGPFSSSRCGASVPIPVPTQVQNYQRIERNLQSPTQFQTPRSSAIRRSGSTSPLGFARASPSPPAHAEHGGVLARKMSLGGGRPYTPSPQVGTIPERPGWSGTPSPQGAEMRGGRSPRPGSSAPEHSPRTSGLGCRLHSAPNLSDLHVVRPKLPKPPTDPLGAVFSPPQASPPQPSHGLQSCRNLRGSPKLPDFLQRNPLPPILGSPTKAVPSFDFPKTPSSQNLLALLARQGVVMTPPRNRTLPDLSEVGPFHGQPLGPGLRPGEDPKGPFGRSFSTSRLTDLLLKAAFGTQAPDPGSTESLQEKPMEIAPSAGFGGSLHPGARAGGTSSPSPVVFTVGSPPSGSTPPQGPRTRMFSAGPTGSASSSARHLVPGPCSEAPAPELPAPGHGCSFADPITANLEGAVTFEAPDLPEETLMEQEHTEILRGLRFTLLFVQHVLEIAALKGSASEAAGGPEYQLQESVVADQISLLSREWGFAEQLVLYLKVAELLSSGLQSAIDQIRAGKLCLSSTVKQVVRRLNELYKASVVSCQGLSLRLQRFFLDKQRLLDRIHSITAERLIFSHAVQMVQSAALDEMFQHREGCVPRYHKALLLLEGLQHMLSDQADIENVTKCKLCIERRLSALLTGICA
# [4] = molecular target: protein kinases (human kinome) (Homo sapiens, UniProt P30291)
# Sequence of protein kinases (human kinome) (Homo sapiens, UniProt P30291) (P30291 whole entry): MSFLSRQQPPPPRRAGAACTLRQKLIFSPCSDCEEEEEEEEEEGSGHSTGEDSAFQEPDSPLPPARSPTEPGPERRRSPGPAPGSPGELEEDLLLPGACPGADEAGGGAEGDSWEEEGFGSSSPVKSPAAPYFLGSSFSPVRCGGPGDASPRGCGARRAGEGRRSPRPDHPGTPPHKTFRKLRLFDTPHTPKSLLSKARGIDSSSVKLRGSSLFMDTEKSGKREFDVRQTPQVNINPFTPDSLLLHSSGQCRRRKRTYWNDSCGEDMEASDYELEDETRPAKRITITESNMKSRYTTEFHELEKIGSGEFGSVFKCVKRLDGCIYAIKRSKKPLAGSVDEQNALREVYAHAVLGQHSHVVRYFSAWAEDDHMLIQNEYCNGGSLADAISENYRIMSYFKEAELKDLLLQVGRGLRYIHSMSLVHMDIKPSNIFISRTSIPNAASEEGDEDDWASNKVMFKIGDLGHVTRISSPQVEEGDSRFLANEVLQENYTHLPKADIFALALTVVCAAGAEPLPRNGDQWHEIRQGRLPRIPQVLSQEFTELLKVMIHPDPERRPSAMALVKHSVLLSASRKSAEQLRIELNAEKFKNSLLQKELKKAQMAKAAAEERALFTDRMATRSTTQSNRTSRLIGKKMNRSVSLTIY
# Sequence of protein kinases (human kinome) (Homo sapiens, UniProt Q9H0K1) (Q9H0K1 whole entry): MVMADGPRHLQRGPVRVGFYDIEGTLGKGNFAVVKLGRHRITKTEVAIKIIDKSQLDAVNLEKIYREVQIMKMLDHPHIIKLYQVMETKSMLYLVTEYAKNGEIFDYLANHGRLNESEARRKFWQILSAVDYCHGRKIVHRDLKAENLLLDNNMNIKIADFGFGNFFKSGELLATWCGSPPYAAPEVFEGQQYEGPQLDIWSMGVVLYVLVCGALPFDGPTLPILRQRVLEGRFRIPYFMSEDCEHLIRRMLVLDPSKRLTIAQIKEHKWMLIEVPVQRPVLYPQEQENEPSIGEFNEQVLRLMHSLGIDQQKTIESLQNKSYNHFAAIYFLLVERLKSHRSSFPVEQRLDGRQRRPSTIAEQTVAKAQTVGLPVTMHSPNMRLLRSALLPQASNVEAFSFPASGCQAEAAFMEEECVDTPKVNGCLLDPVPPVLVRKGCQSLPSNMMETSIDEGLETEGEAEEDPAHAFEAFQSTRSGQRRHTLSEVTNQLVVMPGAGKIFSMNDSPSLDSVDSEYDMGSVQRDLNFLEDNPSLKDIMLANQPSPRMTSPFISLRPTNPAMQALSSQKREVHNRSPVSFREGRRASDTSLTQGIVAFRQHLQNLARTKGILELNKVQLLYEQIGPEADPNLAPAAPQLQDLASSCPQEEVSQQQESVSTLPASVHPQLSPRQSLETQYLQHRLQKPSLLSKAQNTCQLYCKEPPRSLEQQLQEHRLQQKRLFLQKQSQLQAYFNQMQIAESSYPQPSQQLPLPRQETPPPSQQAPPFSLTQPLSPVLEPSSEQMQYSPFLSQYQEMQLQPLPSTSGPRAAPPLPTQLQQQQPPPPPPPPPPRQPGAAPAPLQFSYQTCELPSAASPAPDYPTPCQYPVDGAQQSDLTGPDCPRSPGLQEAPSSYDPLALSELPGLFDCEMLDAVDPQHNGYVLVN
structure (smiles),measurement,setting,value
Cc1ncsc1-c1ccc([C@H](C)NC(=O)[C@@H]2C[C@@H](O)CN2C(=O)[C@@H](NC(=O)CCCCCN2CCc3cc(Nc4ncc(C5CC5)c(NCCCNC(=O)C5CCC5)n4)ccc3C2)C(C)(C)C)cc1 [BSJ.05.026],logFC of SIK2,[1]; Accession Q9H0K1,−0.9472
same,logFC SIK2 (Q9H0K1),[1]; direction of change down,−0.9472
same,logFC,[2]; MARK3 (P27448-5),−0.8242
same,logFC MARK3 (P27448-5),[2]; direction of change down,−0.8242
same,logFC,"[3]; ULK1 (O75385) protein abundance, degrader vs DMSO, down",−0.4424
same,logFC ULK1,"[3]; ULK1 O75385, experiment wp195",−0.4424
same,logFC WEE1 (P30291-1),[4]; Experiment wp195,−0.8876
same,logFC of WEE1,"[4]; WEE1 P30291-1, experiment wp196",−0.8876
